# Source: ChEMBL document CHEMBL2331252, “Facile one-pot synthesis of novel dispirooxindole-pyrrolidine derivatives and their antimicrobial and anticancer activity against A549 human lung adenocarcinoma cancer cell line” (Bioorg Med Chem Lett, 2013)
# Calls of active or inactive are those of the source. The calls are words filed in the database; no cut-off is given here.
# Legend:
# Klebsiella pneumoniae [1] = experiment: Antibacterial activity against Klebsiella pneumoniae MTCC 109 at 1 mg/disc after 24 hrs by disc diffusion method; assay type: functional
# Salmonella typhimurium [2] = experiment: Antibacterial activity against Salmonella typhimurium MTCC 1251 after 24 hrs; assay type: functional, Salmonella enterica subsp. enterica serovar Typhimurium
# Proteus vulgaris [3] = experiment: Antibacterial activity against Proteus vulgaris MTCC 1771 after 24 hrs; assay type: functional; conditions: MTCC 1771, 24 h
# A549 [4] = experiment: Cytotoxicity against human A549 cells assessed as cell death at 100 ug/ml by MTT assay; assay type: functional
# Staphylococcus aureus [5] = experiment: Antibacterial activity against Staphylococcus aureus MTCC 96 after 24 hrs; assay type: functional; conditions: MTCC 96, 24 h
# Candida albicans [6] = experiment: Antifungal activity against Candida albicans MTCC 227 after 48 to 72 hrs; assay type: functional
# Klebsiella aerogenes [7] = experiment: Antibacterial activity against Enterobacter aerogenes MTCC 111 after 24 hrs; assay type: functional
# Shigella flexneri [8] = experiment: Antibacterial activity against Shigella flexneri MTCC 1457 after 24 hrs; assay type: functional; conditions: MTCC 1457, 24 h
# A549 [9] = experiment: Cytotoxicity against human A549 cells assessed as cell death at 50 ug/ml by MTT assay; assay type: functional
# A549 [10] = experiment: Cytotoxicity against human A549 cells assessed as cell death at 200 ug/ml by MTT assay; assay type: functional
# [11] = Antifungal activity against Malassezia pachydermatis at 1 mg/disc after 48 hrs by disc diffusion method; assay type: functional
# Candida albicans [12] = experiment: Antifungal activity against Candida albicans MTCC 227 at 1 mg/disc after 48 hrs by disc diffusion method; assay type: functional
# Klebsiella aerogenes [13] = experiment: Antibacterial activity against Enterobacter aerogenes MTCC 111 at 1 mg/disc after 24 hrs by disc diffusion method; assay type: functional
# Staphylococcus aureus [14] = experiment: Antibacterial activity against Staphylococcus aureus MTCC 96 at 1 mg/disc after 24 hrs by disc diffusion method; assay type: functional
# Shigella flexneri [15] = experiment: Antibacterial activity against Shigella flexneri MTCC 1457 at 1 mg/disc after 24 hrs by disc diffusion method; assay type: functional
# Salmonella typhimurium [16] = experiment: Antibacterial activity against Salmonella typhimurium MTCC 1251 at 1 mg/disc after 24 hrs by disc diffusion method; assay type: functional, Salmonella enterica subsp. enterica serovar Typhimurium
# Staphylococcus aureus [17] = experiment: Antibacterial activity against methicillin-resistant Staphylococcus aureus at 1 mg/disc after 24 hrs by disc diffusion method; assay type: functional
# Klebsiella pneumoniae [18] = experiment: Antibacterial activity against Klebsiella pneumoniae MTCC 109 after 24 hrs; assay type: functional; conditions: MTCC 109, 24 h
# Micrococcus luteus [19] = experiment: Antibacterial activity against Micrococcus luteus MTCC 106 at 1 mg/disc after 24 hrs by disc diffusion method; assay type: functional
# Staphylococcus aureus [20] = experiment: Antibacterial activity against methicillin-resistant Staphylococcus aureus after 24 hrs; assay type: functional
# Proteus vulgaris [21] = experiment: Antibacterial activity against Proteus vulgaris MTCC 1771 at 1 mg/disc after 24 hrs by disc diffusion method; assay type: functional
# Micrococcus luteus [22] = experiment: Antibacterial activity against Micrococcus luteus MTCC 106 after 24 hrs; assay type: functional; conditions: MTCC 106, 24 h
# [23] = Salmonella enterica, MTCC 1251, 24 h
# [24] = Salmonella enterica subsp. enterica serovar Typhimurium
SMILES,inhibition zone (IZ) (Klebsiella pneumoniae [1]) [mm],MIC (Salmonella typhimurium [2]; [23]) [µg/mL],MIC (Proteus vulgaris [3]) [µg/mL],Activity (A549 [4]) [%],MIC (Staphylococcus aureus [5]) [µg/mL],MIC (Candida albicans [6]),"MIC (Klebsiella aerogenes [7]; MTCC 111, 24 h) [µg/mL]",MIC (Shigella flexneri [8]) [µg/mL],Activity (A549 [9]) [%],Activity (A549 [10]) [%],inhibition [11],inhibition zone (IZ) (Klebsiella aerogenes [13]) [mm],inhibition zone (IZ) (Staphylococcus aureus [14]) [mm],inhibition zone (IZ) (Shigella flexneri [15]) [mm],inhibition zone (IZ) (Staphylococcus aureus [17]) [mm],MIC (Klebsiella pneumoniae [18]) [µg/mL],inhibition zone (IZ) (Micrococcus luteus [19]) [mm],MIC (Staphylococcus aureus [20]) [µg/mL],inhibition zone (IZ) (Proteus vulgaris [21]) [mm],MIC (Micrococcus luteus [22]) [µg/mL],other results
CN1C(=O)[C@@]2(c3cc(F)ccc31)N(C)C[C@](C#N)(C(=O)c1c[nH]c3ccccc13)[C@]21C(=O)Nc2ccccc21,9,500,500,12.22,500,500 µg/mL,125,500,1.41,25.51,inactive,11,10,9,9,500,10,500,8,500,inhibition zone (IZ) (Candida albicans [12]): 9 mm; inhibition zone (IZ) (Salmonella typhimurium [16]): 8 mm
CCCCCCN1C(=O)[C@@]2(c3ccccc31)N(C)C[C@](C#N)(C(=O)c1c[nH]c3ccccc13)[C@]21C(=O)Nc2ccccc21,11,500,500,56.74,125,inactive,500,500,48.03,62.03,inactive,9,11,10,10,125,10,500,9,500,inhibition (Candida albicans [12]): inactive; inhibition zone (IZ) (Salmonella typhimurium [16]): 9 mm
CN1C(=O)[C@@]2(c3cc(Cl)ccc31)N(C)C[C@](C#N)(C(=O)c1c[nH]c3ccccc13)[C@]21C(=O)Nc2ccccc21,10,500,125,12.98,500,inactive,125,500,3.76,22.21,inactive,11,9,9,10,125,12,500,11,125,inhibition (Candida albicans [12]): inactive; inhibition zone (IZ) (Salmonella typhimurium [16]): 9 mm
CN1C[C@](C#N)(C(=O)c2c[nH]c3ccccc23)[C@]2(C(=O)Nc3ccccc32)[C@@]12C(=O)N(Cc1ccccc1)c1ccccc12,11,–,500,16.03,125,500 µg/mL,500,500,9.26,23.95,–,10,11,7,9,125,9,500,9,500,MIC (Salmonella typhimurium [2]; [24]): inactive; inhibition zone (IZ) [11]: 10 mm; inhibition zone (IZ) (Candida albicans [12]): 9 mm; inhibition (Salmonella typhimurium [16]; [24]): inactive
CN1C[C@](C#N)(C(=O)c2c[nH]c3ccccc23)[C@]2(C(=O)Nc3ccccc32)[C@@]12C(=O)Nc1ccc(Cl)cc12,14,500,250,7.38,500,500 µg/mL,–,1000,3.58,13.15,inactive,–,9,11,8,125,10,500,13,1000,MIC (Klebsiella aerogenes [7]): inactive; inhibition zone (IZ) (Candida albicans [12]): 9 mm; inhibition (Klebsiella aerogenes [13]): inactive; inhibition zone (IZ) (Salmonella typhimurium [16]): 8 mm
